In patent US20250002527A1, “STEROID COMPOUND AND CONJUGATE THEREOF” (DUALITY BIOLOGICS (SUZHOU) CO., LTD., priority 2021, published 2025):

Columns and labels:
human PBMC cells [1] = assay: TNF-α secretion from PBMC under R848 stimulation (compounds); assay type: cell-based; conditions: R848 5 μM, 24 hours, mean ± standard deviation
Procedure: (§1) The compounds of the present application were tested for their inhibitory effect on the production of peripheral blood monocytes. The peripheral blood monocytes were treated in vitro with the ligand-drug conjugate at different concentrations, and IFNα and TNFα generated by the peripheral blood monocytes were quantitatively detected after a certain time. The compounds of the present invention were evaluated for in-vitro activity.
(§2) The cryopreserved human PBMC cells were resuspended in a complete medium and counted, and the cell suspension was adjusted to 2.5×10*6 cells/mL with the culture medium. After the suspension was centrifuged to collect the cells the next day, the cells were resuspended using fresh culture medium. Test compounds were diluted to 4-fold final concentration in cell culture medium, 50 μL of the compounds were added into a 96-well cell plate, and 100 μL of diluted cells ([…]) were added into each well of the 96-well plate containing the compounds, followed by addition of 50 μL R848 to a final concentration of 5 μM. The cell plate was incubated at 37° C. with 5% CO2 for 24 hours. The supernatant was collected, and the TNF-α and IFN-α concentration levels in the supernatant were detected using an ELISA kit.
TNF-α concentration assay was performed using Dakewe TNF-α ELISA kit (Cat #1117202), 100 μL of the serially-diluted cytokine standard was added into each well, 100 μL of the above supernatant diluted 10-fold was added into each well, and 100 μL of 1× dilution buffer R was added into each blank well. 50 μL of biotinylated antibody working solution was added into each well. After mixing well, the plate was covered with the plate-sealing membrane and incubated at room temperature for 3 hours. The plate was washed for 3 times: the liquid in each well was discarded, and 300 μL of 1× washing buffer working solution was added into each well; after 1 minute of residence, the liquid in the wells was discarded. The procedure was repeated for 3 times. 100 μL of Streptavidin-HRP working solution was added into each well. The plate was covered with the plate-sealing membrane and incubated at room temperature for 20 minutes. The plate was washed for 3 times, 100 μL of TMB liquid was added into each well, and the plate was incubated for 25 minutes at room temperature (18-25° C.) in the dark. The reaction was stopped by adding 100 μL stop solution rapidly to each well. The reading at a wavelength of 450 nm was detected by an M2e instrument within 10 minutes after termination.
(§3) The contents of TNF-α and IFN-α were calculated from the OD450 values.

human PBMC cells [2] = assay: IFN-α secretion from PBMC under R848 stimulation (compounds); assay type: cell-based; conditions: R848 5 μM, 24 hours, mean ± standard deviation
Procedure: as §1, §2
50 μL of biotinylated antibody working solution was added into each well. After mixing well, the plate was covered with the plate-sealing membrane and incubated at room temperature for 3 hours. […] The procedure was repeated for 3 times. 100 μL of Streptavidin-HRP working solution was added into each well. The plate was covered with the plate-sealing membrane and incubated at room temperature for 20 minutes. The plate was washed for 3 times, 100 μL of TMB liquid was added into each well, and the plate was incubated for 25 minutes at room temperature (18-25° C.) in the dark. The reaction was stopped by adding 100 μL stop solution rapidly to each well. The reading at a wavelength of 450 nm was detected by an M2e instrument within 10 minutes after termination.
as §3

C[C@]12C=CC(=O)C=C1CC[C@@H]1[C@@H]2[C@@H](O)C[C@@]2(C)[C@H]1C[C@H]1O[C@@H](c3ccc(Cc4ccc(CO)cc4)cc3)O[C@]12C(=O)CO [Compound 4]
TNF-α secretion (pg/mL) from PBMC under R848 stimulation (human PBMC cells [1]; compound 4 nM): 443.6 pg/mL | TNF-α secretion (pg/mL) from PBMC under R848 stimulation (human PBMC cells [1]; compound 20 nM): 320 pg/mL | TNF-α secretion (pg/mL) from PBMC under R848 stimulation (human PBMC cells [1]; compound 100 nM): 356.1 pg/mL | IFN-α secretion (pg/mL) from PBMC under R848 stimulation (human PBMC cells [2]; compound 4 nM): 13.2 ± 13.2 pg/mL | IFN-α secretion (pg/mL) from PBMC under R848 stimulation (human PBMC cells [2]; compound 20 nM): 27.9 ± 27.9 pg/mL | IFN-α secretion (pg/mL) from PBMC under R848 stimulation (human PBMC cells [2]; compound 100 nM): 0 ± 0 pg/mL
